Measured values reported in paper PMC6458995, “MAP4K4 Inhibition Promotes Survival of Human Stem Cell-Derived Cardiomyocytes and Reduces Infarct Size In Vivo” (Cell Stem Cell, 2019).

Columns and labels:
Assay in all cases: Dundee kinase panel
Type in all cases: biochemical
Conditions in all cases: for remaining activity at 1 µM: read-out: residual activity
ASK1 = target: T1, ASK1 (Homo sapiens, UniProt Q99683)
T1 construct: lines 1-140) and Reaction Biology
T1 sequence (Q99683 1-1374): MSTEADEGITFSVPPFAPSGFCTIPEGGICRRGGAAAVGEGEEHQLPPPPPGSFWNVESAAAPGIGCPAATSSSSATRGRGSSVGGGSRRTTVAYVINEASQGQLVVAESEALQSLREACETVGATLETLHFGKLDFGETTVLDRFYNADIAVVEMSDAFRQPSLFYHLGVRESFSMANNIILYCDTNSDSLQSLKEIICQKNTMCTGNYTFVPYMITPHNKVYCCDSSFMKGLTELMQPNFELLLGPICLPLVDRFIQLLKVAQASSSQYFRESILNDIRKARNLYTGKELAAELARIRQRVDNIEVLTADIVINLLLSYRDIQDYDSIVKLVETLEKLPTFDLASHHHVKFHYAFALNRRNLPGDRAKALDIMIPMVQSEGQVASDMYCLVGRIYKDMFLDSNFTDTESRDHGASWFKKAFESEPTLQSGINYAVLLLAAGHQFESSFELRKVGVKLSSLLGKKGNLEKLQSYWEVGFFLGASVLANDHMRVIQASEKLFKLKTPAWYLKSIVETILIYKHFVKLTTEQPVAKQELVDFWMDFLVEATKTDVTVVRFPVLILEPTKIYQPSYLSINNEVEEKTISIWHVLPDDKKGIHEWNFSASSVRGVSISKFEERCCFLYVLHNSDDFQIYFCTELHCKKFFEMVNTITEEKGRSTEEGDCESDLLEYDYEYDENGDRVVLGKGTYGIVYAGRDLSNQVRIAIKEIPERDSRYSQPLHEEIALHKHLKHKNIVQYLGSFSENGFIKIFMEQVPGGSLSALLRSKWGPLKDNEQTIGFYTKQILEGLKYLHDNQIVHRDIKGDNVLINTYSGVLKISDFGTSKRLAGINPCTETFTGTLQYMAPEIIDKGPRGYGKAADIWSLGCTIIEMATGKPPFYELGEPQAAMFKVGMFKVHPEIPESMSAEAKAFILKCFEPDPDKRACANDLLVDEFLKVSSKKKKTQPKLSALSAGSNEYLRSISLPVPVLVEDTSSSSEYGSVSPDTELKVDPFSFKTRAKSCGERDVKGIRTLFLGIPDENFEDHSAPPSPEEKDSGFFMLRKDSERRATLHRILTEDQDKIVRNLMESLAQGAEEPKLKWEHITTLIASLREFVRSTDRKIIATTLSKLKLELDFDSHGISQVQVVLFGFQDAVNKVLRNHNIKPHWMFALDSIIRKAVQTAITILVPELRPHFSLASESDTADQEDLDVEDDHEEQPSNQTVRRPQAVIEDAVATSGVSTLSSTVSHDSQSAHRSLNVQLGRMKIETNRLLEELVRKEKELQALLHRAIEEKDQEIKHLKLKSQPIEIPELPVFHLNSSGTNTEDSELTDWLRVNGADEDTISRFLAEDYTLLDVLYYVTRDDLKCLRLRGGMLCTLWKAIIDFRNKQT
Protocol: (§1) Compounds were screened at 1 μM. For key hits, pIC50 values were then determined by HTRF as above. […] Stability in mouse and human liver microsomes was determined by Cyprotex.

EPH-B3 = target: T2, EPH-B3 (Homo sapiens, UniProt P54753)
T2 construct: lines 1-140) and Reaction Biology
T2 sequence (P54753 34-998): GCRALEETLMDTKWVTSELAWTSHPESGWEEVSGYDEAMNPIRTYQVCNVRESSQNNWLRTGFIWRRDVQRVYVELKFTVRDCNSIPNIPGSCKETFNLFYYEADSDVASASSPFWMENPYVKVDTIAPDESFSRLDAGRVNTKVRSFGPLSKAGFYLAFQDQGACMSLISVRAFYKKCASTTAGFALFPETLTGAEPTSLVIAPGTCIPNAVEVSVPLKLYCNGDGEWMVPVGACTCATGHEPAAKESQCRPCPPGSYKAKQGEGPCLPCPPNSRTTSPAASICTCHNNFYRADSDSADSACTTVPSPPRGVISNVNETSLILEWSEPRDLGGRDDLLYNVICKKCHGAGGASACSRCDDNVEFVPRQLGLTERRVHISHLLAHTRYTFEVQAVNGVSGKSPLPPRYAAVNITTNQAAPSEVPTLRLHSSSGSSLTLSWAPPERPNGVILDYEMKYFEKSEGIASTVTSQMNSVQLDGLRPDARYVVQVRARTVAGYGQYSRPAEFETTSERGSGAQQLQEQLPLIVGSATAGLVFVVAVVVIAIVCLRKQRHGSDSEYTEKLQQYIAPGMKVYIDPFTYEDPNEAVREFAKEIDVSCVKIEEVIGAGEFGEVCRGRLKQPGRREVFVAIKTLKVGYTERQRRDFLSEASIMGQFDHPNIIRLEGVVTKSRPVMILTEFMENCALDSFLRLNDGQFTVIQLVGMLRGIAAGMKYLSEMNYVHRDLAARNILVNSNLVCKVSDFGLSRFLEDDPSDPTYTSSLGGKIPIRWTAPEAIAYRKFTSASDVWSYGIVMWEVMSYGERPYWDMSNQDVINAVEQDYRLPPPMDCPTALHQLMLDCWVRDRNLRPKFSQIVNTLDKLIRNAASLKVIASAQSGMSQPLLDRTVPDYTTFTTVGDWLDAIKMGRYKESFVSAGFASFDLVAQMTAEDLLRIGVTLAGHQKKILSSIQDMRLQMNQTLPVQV
Protocol: as §1

PKBa = target: T3, PKBa (Homo sapiens, UniProt P31749)
T3 construct: lines 1-140) and Reaction Biology
Protocol: as §1

PKCγ = target: T4, PKCγ (Homo sapiens, UniProt P05129)
T4 construct: lines 1-140) and Reaction Biology
Protocol: as §1

SRPK1 = target: T5, SRPK1 (Homo sapiens, UniProt Q96SB4)
T5 construct: lines 1-140) and Reaction Biology
Protocol: as §1

T5 sequence (Q96SB4 whole entry): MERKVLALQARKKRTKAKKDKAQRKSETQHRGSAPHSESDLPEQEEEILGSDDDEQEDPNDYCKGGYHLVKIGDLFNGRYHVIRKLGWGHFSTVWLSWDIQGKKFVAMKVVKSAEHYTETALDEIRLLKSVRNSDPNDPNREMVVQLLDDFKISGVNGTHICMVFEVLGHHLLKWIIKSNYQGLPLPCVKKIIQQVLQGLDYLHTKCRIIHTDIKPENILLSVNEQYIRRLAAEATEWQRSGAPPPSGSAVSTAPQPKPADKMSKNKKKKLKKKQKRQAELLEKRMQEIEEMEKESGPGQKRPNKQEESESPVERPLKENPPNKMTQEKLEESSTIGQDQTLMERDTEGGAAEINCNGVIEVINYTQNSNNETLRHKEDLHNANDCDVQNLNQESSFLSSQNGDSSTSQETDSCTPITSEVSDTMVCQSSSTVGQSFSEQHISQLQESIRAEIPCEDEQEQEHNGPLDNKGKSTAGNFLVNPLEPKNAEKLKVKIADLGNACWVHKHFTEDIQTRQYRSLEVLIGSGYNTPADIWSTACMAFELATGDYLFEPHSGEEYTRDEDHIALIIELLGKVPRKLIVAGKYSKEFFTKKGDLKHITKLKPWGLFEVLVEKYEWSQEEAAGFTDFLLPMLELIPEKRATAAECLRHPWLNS
T3 sequence (P31749 whole entry): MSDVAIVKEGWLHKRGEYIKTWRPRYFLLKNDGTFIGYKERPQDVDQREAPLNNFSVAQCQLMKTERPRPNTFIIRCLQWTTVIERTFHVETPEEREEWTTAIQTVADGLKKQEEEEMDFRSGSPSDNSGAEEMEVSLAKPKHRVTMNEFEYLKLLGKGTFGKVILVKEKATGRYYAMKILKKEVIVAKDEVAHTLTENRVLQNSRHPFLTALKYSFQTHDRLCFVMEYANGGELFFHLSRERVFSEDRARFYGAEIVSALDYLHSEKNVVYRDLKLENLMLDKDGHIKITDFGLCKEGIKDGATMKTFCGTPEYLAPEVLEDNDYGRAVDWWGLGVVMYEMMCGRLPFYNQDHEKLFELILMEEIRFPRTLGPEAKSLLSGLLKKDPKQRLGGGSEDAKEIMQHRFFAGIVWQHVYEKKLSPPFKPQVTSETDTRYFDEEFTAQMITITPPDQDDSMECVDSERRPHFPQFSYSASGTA

SMILES | remaining activity at 1 µM (ASK1) [%] | remaining activity at 1 µM (EPH-B3) [%] | remaining activity at 1 µM (PKBa) [%] | remaining activity at 1 µM (PKCγ) [%] | remaining activity at 1 µM (SRPK1) [%] | residual activity (ASK1; 1 μM) [%] | residual activity (EPH-B3; 1 μM) [%] | residual activity (PKBa; 1 μM) [%] | residual activity (PKCγ; 1 μM) [%] | residual activity (SRPK1; 1 μM) [%]
COCCOc1ccc(-c2cn(-c3ccccc3)c3nc[nH]c(=O)c23)cc1 [DMX-5804, 5-[4-(2-methoxy-ethoxy)-phenyl]-7-phenyl-3,7-dihydro-pyrrolo[2,3-d]pyrimidin-4-one] | 108 | 96 | 116 | 94 | 91 |  |  |  |  | 
Oc1ncnc2c1c(-c1ccccc1)cn2-c1ccccc1 [F1386-0303, 5,7-diphenyl-7H-pyrrolo[2,3-d]pyrimidin-4-ol] | 93 | 104 | 117 | 105 | 112 |  |  |  |  | 
Nc1ncc(C(=O)NC2CN(C(=O)C3CC3)C2)c2ccc(-c3cccc(F)c3)nc12 [GNE-495] |  |  |  |  |  | 84 | 87 | 105 | 74 | 105
O=C1Nc2ccc(I)cc2/C1=C/c1cc(Br)c(O)c(Br)c1 [GW5074] | 56 | 94 | 93 | 100 | 8 |  |  |  |  | 
O=C1Cc2c([nH]c3ccc(Br)cc23)-c2ccccc2N1 [Kenpaullone] | 68 |  | 95 | 105 | 36 |  |  |  |  | 
